Test [1] relates to delayed-type hypersensitivity to N-acetyltyrosine-3-azobenzene-4'-arsonic acid (ABA-N-Ac-Tyr). Briefly: Adjuvant activity: enhancement of induction of delayed-type hypersensitivity (skin reaction). Type of test: in vivo. The settings on record: guinea pig, 100 μg/animal compound with 50 μg ABA-N-Ac-Tyr in FIA into soles, 100 μg ABA-BSA intradermal two weeks later, mean ± SE; for Skin Reaction 24 Hours (diameter of erythema and induration): read 24 hours after injection; for Skin Reaction 48 Hours (diameter of erythema and induration): read 48 hours after injection. Here is the method:
The adjuvant activity was confirmed by the enhancing activity on the induction of delayed-type hypersensitivity to N-acetyltyrosine-3-azobenzene-4'-arsonic acid (hereinafter referred to as ABA-N-Ac-Tyr) in guinea pig.
That is, a water-in-oil emulsion prepared by mixing 50 μg/animal of ABA-N-Ac-Tyr and 100 μg/animal of each of the compounds of the present invention with Freund's incomplete adjuvant (hereinafter referred to as FIA) was administered to the soles of guinea pigs. Two weeks later, 100 μg of 3-azobenzene-4'-arsonic acid bonded to bovine serum albumin (hereinafter referred to as ABA-BSA) was intradermally injected and the diameter of skin reaction (i.e., erythema and induration) was measured 24 hours and 48 hours after the injection. The diameter of the skin reaction is considered a measure of cellular immunity.

Another test concerns E. coli E77156. In words: Prophylactic effect against microbial infection in mice. The format is in vivo. The conditions noted are these: STD-ddy male mice, 100 μg/mouse s.c. 24 hours before s.c. challenge. The protocol: (2) Prophylactic Effect Against Microbial Infection
Animals: Groups of 20 STD-ddy male mice, 5 weeks of age, were used.
Bacteria: E. coli E77156 which has been maintained in a freezed-culture was used.
Agents: Compounds of the present invention were dissolved or suspended in Dulbecco phosphate-buffered saline (PBS: pH 7.4) at a concentration of 500 μg/ml just before use.
Treatment and Infection: The animals were treated subcutaneously with 0.2 ml of each of the above solution or suspension (equivalent to 100 μg/mouse), followed by the subcutaneous challenge with E. coli 24 hours later.
The effect was judged from the percent survival of the mice seven days after the infection.

The mark [2] stands for this setting: inoculum 4.4 × 10^6 cells/mouse.
The mark [3] stands for this setting: inoculum 6.17 × 10^6 cells/mouse.

`COC(=O)CC[C@@H](NC(=O)[C@H](C)NC(=O)[C@@H](C)O[C@H]1[C@H](O)[C@@H](CO)O[C@@H](SC(C)=O)[C@@H]1NC(C)=O)C(N)=O` [Compound 2, 2-Acetamido-1-S-acetyl-2-deoxy-3-O-(D-2-propanoyl-L-alanyl-D-isoglutaminemethyl ester)-1-thio-β-D-glucopyranose]: in test [1], the “Skin Reaction 24 Hours (diameter of erythema and induration)” value (“Skin Reaction 24 Hours” for short) stood at 21.0 ± 1.0 mm; the “Skin Reaction 48 Hours (diameter of erythema and induration)” value (shortened to “Skin Reaction 48 Hours”) is 21.0 ± 0.7 mm.

With `COC(=O)CC[C@@H](NC(=O)[C@H](C)NC(=O)[C@@H](C)O[C@H]1[C@H](O)[C@@H](CO)O[C@@H](S)[C@@H]1NC(C)=O)C(N)=O` [Compound 3, 2-Acetamido-2-deoxy-3-O-(D-2-propanoyl-L-alanyl-D-isoglutaminemethyl ester)-1-thio-β-D-glucopyranose], in test [1], the “Skin Reaction 24 Hours” value was determined as 22.1 ± 0.9 mm; the “Skin Reaction 48 Hours” value was 20.9 ± 0.7 mm.

On to `CC(=O)NC1C(S)OC(CO)C(O)C1OC(C)C(=O)NC(C)C(=O)NC(CCC(=O)O)C(N)=O` [Compound 4, 2-acetamido-2-deoxy-3-O-(D-2-propanoyl-L-alanyl-D-isoglutamine)-1-thio-β-D-glucopyranose], for which, in test [1], the “Skin Reaction 24 Hours” value stood at 23.1 ± 1.2 mm; the “Skin Reaction 48 Hours” value is on record as 21.0 ± 1.3 mm. In the test with E. coli E77156 (setting [2]), the “% Survival 7 days after Infection” value stood at 55%.

`CCCCS[C@@H]1O[C@H](CO)[C@@H](O)[C@H](O[C@H](C)C(=O)N[C@@H](C)C(=O)N[C@H](CCC(=O)OC)C(N)=O)[C@H]1NC(C)=O` [Compound 8, 1-S-n-Butyl 2-acetamido-2-deoxy-3-O-(D-2-propanoyl-L-alanyl-D-isoglutaminemethyl ester)-1-thio-β-D-glucopyranoside]: in test [1], the “Skin Reaction 24 Hours” value amounted to 14.5 ± 0.7 mm; the “Skin Reaction 48 Hours” value worked out at 10.3 ± 1.0 mm.

Consider `CCCCCCCCCCCCCCCCSC1OC(CO)C(O)C(OC(C)C(=O)NC(C)C(=O)NC(CCC(=O)OC)C(N)=O)C1NC(C)=O` [Compound 9, 1-S-Hexadecanyl 2-acetamido-2-deoxy-3-O-(D-2-propanoyl-L-alanyl-D-isoglutaminemethyl ester)-1-thio-β-D-glucopyranoside], for which, in test [1], the “Skin Reaction 24 Hours” value came to 13.5 ± 0.8 mm; the “Skin Reaction 48 Hours” value was found to be 12.4 ± 0.7 mm.

Take `CCCCSC1OC(CO)C(O)C(OC(C)C(=O)NC(C)C(=O)NC(CCC(=O)O)C(N)=O)C1NC(C)=O` [Compound 10, 1-S-n-Butyl 2-acetamido-2-deoxy-3-O-(D-2-propanoyl-L-alanyl-D-isoglutamine)-1-thio-β-D-glucopyranoside]: in test [1], the “Skin Reaction 24 Hours” value is on record as 17.4 ± 1.7 mm; the “Skin Reaction 48 Hours” value is listed as 13.6 ± 1.8 mm.

As to `CCCCCCCCCCCCCCCCSC1OC(CO)C(O)C(OC(C)C(=O)NC(C)C(=O)NC(CCC(=O)O)C(N)=O)C1NC(C)=O` [Compound 11, 1-S-Hexadecanyl 2-acetamido-2-deoxy-3-O-(D-2-propanoyl-L-alanyl-D-isoglutamine)-1-thio-β-D-glucopyranoside], in test [1], the “Skin Reaction 24 Hours” value turned out to be 15.6 ± 1.9 mm; the “Skin Reaction 48 Hours” value was determined as 11.6 ± 1.4 mm.

As for `CCCCCCCCCCCCCCCC(=O)S[C@@H]1O[C@H](CO)[C@@H](O)[C@H](O[C@H](C)C(=O)N[C@@H](C)C(=O)N[C@H](CCC(=O)OC)C(N)=O)[C@H]1NC(C)=O` [Compound 14, 2-Acetamido-2-deoxy-1-S-hexadecanoyl-3-O-(D-2-propanoyl-L-alanyl-D-isoglutaminemethyl ester)-1-thio-β-D-glucopyranose], in test [1], the “Skin Reaction 24 Hours” value was 20.4 ± 0.7 mm; the “Skin Reaction 48 Hours” value worked out at 21.0 ± 1.4 mm. In addition, the “% Survival 7 days after Infection” value in the test with E. coli E77156 (setting [2]) amounted to 80%.

For `CC(=O)NC1C(S)OC2COC(C)(C)OC2C1OC(C)C(=O)NC(C)C(=O)NC(CCC(=O)O)C(N)=O` [Compound 15, 2-Acetamido-2-deoxy-4,6-O-isopropylidene-3-O-(D-2-propanoyl-L-alanyl-D-isoglutamine)-1-thio-β-D-glucopyranose], in test [1], the “Skin Reaction 24 Hours” value is listed as 16.9 ± 0.8 mm; the “Skin Reaction 48 Hours” value came out at 14.0 ± 1.0 mm.

As to `CCCCCCCCCCCCCCCC(=O)SC1OC2COC(C)(C)OC2C(OC(C)C(=O)NC(C)C(=O)NC(CCC(=O)O)C(N)=O)C1NC(C)=O` [Compound 16, 2-Acetamido-2-deoxy-1-S-hexadecanoyl-4,6-O-isopropylidene-3-O-(D-2-propanoyl-L-alanyl-D-isoglutamine)-1-thio-β-D-glucopyranose], in test [1], the “Skin Reaction 24 Hours” value turned out to be 11.3 ± 0.8 mm; the “Skin Reaction 48 Hours” value amounted to 5.6 ± 1.4 mm.

Take `CCCCCCCCCCCCCCCC(=O)S[C@@H]1O[C@H](CO)[C@@H](O)[C@H](O[C@H](C)C(=O)N[C@@H](C)C(=O)N[C@H](CCC(=O)O)C(N)=O)[C@H]1NC(C)=O` [Compound 17, 2-Acetamido-2-deoxy-1-S-hexadecanoyl-3-O-(D-2-propanoyl-L-alanyl-D-isoglutamine)-1-thio-β-D-glucopyranose]: in test [1], the “Skin Reaction 24 Hours” value is listed as 21.8 ± 0.8 mm; the “Skin Reaction 48 Hours” value is 23.1 ± 1.1 mm. The “% Survival 7 days after Infection” value with E. coli E77156 (setting [2]) is reported as 60%.

As for `CCCCCCCCCC(=O)S[C@@H]1O[C@H](CO)[C@@H](O)[C@H](O[C@H](C)C(=O)N[C@@H](C)C(=O)N[C@H](CCC(=O)OC)C(N)=O)[C@H]1NC(C)=O` [Compound 18, 2-Acetamido-2-deoxy-1-S-decanoyl-3-O-(D-2-propanoyl-L-alanyl-D-isoglutaminemethyl ester)-1-thio-β-D-glucopyranose], the “% Survival 7 days after Infection” value in the test with E. coli E77156 (setting [3]) came to 90%.

Turning to `CCCCCCCCCCCCCCCCCC(=O)S[C@@H]1O[C@H](CO)[C@@H](O)[C@H](O[C@H](C)C(=O)N[C@@H](C)C(=O)N[C@H](CCC(=O)OC)C(N)=O)[C@H]1NC(C)=O` [Compound 19, 2-Acetamido-2-deoxy-1-S-octadecanoyl-3-O-(D-2-propanoyl-L-alanyl-D-isoglutaminemethyl ester)-1-thio-β-D-glucopyranose], the “% Survival 7 days after Infection” value with E. coli E77156 (setting [3]) was found to be 70%.

With `CCCC(=O)S[C@@H]1O[C@H](CO)[C@@H](O)[C@H](O[C@H](C)C(=O)N[C@@H](C)C(=O)N[C@H](CCC(=O)OC)C(N)=O)[C@H]1NC(C)=O` [Compound 21, 2-Acetamido-2-deoxy-1-S-n-butanoyl-3-O-(D-2-propanoyl-L-alanyl-D-isoglutaminemethyl ester)-1-thio-β-D-glucopyranose], in the test on E. coli E77156 (setting [3]), the “% Survival 7 days after Infection” value is given as 50%.

On to `CCCCCCCCCCCC(=O)S[C@@H]1O[C@H](CO)[C@@H](O)[C@H](O[C@H](C)C(=O)N[C@@H](C)C(=O)N[C@H](CCC(=O)O)C(N)=O)[C@H]1NC(C)=O` [Compound 22, 2-Acetamido-2-deoxy-1-S-dodecanoyl-3-O-(D-2-propanoyl-L-alanyl-D-isoglutamine)-1-thio-β-D-glucopyranose], for which the “% Survival 7 days after Infection” value in the test on E. coli E77156 (setting [3]) worked out at 55%.

`CCCCCCCCCCCCCC(=O)SC1OC(CO)C(O)C(OC(C)C(=O)NC(C)C(=O)NC(CCC(=O)O)C(N)=O)C1NC(C)=O` [Compound 23, 2-Acetamido-2-deoxy-1-S-tetradecanoyl-3-O-(D-2-propanoyl-L-alanyl-D-isoglutamine)-1-thio-β-D-glucopyranose]: the “% Survival 7 days after Infection” value in the test on E. coli E77156 (setting [3]) was determined as 60%.

Regarding `CCCCCCCCCCCCCC(=O)S[C@@H]1O[C@H](CO)[C@@H](O)[C@H](O[C@H](C)C(=O)N[C@@H](C)C(=O)N[C@H](CCC(=O)OC)C(N)=O)[C@H]1NC(C)=O` [Compound 24, 2-Acetamido-2-deoxy-1-S-tetradecanoyl-3-O-(D-2-propanoyl-L-alanyl-D-isoglutaminemethyl ester)-1-thio-β-D-glucopyranose], the “% Survival 7 days after Infection” value with E. coli E77156 (setting [3]) amounted to 65%.

For the compound `CCCCCCCCCCCCCCCCCCCC(=O)S[C@@H]1O[C@H](CO)[C@@H](O)[C@H](O[C@H](C)C(=O)N[C@@H](C)C(=O)N[C@H](CCC(=O)O)C(N)=O)[C@H]1NC(C)=O` [Compound 25, 2-Acetamido-2-deoxy-1-S-eicosanoyl-3-O-(D-2-propanoyl-L-alanyl-D-isoglutamine)-1-thio-β-D-glucopyranose], the “% Survival 7 days after Infection” value in the test with E. coli E77156 (inoculum 6.88 × 10^6 cells/mouse) stood at 55%.

For the origin of these results see patent publication US4606857A, “Muramyldipeptide derivatives” (priority 1982, dated 1986).
